Patent US20100022584A1, “Modulation of Glutamine Synthetase Activity” (priority 2006, published 2010)
Residue numbers refer to the chain shown, from its start. “Also recorded” adds a separate entry of the source.

Legend:
[1] = target: T1, glutamine synthetase mutant S52A S53A (Escherichia coli, UniProt P0A9C5, S53A/S54A); assay: HPLC forward-reaction glutamine synthetase assay with serine protease inhibitors; type: biochemical, E. coli; settings: 1 mM inhibitor; for % Reduction in ADP-based Specific Activity / % Reduction in Glutamine-based Specific Activity / % Conversion: S52A S53A; for % Reduction in ADP-based Specific Activity / % Reduction in Glutamine-based Specific Activity: 60 min pre-incubation, vs no-inhibitor control, positive = activity increased; for % Conversion: glutamine-based divided by ADP-based specific activity
T1 construct: made in house; host or cells: E. coli YMC11 (glutamine synthetase auxotroph), pBluescript II SK+
T1 sequence (P0A9C5 2-469 S53A/S54A limits assumed): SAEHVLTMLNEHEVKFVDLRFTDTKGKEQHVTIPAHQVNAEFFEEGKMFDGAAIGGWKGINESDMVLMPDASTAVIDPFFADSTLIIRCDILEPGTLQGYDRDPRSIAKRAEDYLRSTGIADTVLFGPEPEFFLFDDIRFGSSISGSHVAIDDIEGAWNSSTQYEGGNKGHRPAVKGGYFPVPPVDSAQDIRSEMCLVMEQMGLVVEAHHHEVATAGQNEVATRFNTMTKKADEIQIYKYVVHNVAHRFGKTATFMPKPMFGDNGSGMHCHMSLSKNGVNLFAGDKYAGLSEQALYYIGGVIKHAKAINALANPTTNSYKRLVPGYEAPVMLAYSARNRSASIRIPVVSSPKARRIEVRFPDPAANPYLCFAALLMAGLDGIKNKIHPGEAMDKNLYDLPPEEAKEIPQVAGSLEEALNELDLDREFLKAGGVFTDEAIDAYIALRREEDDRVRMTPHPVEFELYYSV
Protocol: (§1) This assay was set up to measure glutamine synthetase activity according to the forward reaction, and measures the amount of glutamine formed from […] of L-glutamate in the presence of MnCO3-ATP (the basis of one reaction) and MgATP (the basis of a second reaction). In addition, the amount of ADP formed is also measured in a separate assay, using the same reagents.
(§2) All enzyme preparations were adjusted to the same concentration of protein, and added to the assay mixture in a volume of 50 μl. The addition of the enzyme started the reaction, which was then allowed to proceed for 1 hour. The reaction was stopped by the addition of 6 μl of a 50% solution of trichloroacetic acid. Each assay was then aliquoted into 4 HPLC vials (150 μl per vial), two of which were assayed for glutamate and glutamine using a Phenomenex Luna 5 μC18 Column on an Agilent 100 HPLC instrument. The ATP/ADP assays were run on a Chromolith Performance RP-18c column also using an Agilent 100 HPLC instrument.
(§3) As it is believed that two putative catalytic triads, similar to those in the serine proteases, are involved in the reaction mechanism of glutamine synthetase, certain of the mutants were also assayed by HPLC in the presence of the serine protease inhibitors, AEBSF and PMSF, in order to assess the effect that these inhibitors had on the enzyme. The enzymes assessed were the adenylylated WT enzyme, the deadenylylated WT enzyme, and the mutant enzymes S52A, S52A Y397V, S53A, S53A Y397V, S52A S53A and S52A S53A Y397V. The enzymes were pre-incubated for 60 minutes in the presence of 1 mM PMSF or 1 mM AEBSF. A control reaction was set up for each enzyme, which contained no inhibitor. Each enzyme was then added to assays set up as described above. The assay was allowed to proceed for 60 minutes, then stopped by the addition of […] of 50% TCA, after which they were analysed by HPLC. All assays were run in triplicate.
(§4) In addition to the γ-glutamyl transferase assays, assays were also developed to measure the rate of conversion of ATP and glutamate to ADP and glutamine by HPLC. These were set up as single assays but analysed separately for glutamate and glutamine and ATP and ADP. The conversion rates for glutamate to glutamine, in both the presence of Mn^2+ and Mg^2+ by glutamine synthetase, is referred to as the […] specific activity and is presented in μmoles/min/mg protein. The conversion rates for ATP to ADP, in both the presence of Mn^2+ and Mg^2+ by glutamine synthetase, is referred to as the ADP-based specific activity and is presented in μmoles/min/mg protein. The percentage of conversion was also calculated by dividing the glutamine-based specific activity by the ADP-based specific activity, and this value is interpreted as the ability of the enzyme to complete both steps of the reaction, i.e., glutamate to glutamine and ATP to ADP, at an equivalent level of efficiency.

[2] = target: T2, glutamine synthetase mutant S52A Y397V (Escherichia coli, UniProt P0A9C5, S53A/Y398V); assay: as above; type: biochemical, E. coli; settings: 1 mM inhibitor; for inhibition of the enzyme (in words): HPLC assays; for % Conversion: glutamine-based divided by ADP-based specific activity
T2 construct: made in house; host or cells: E. coli YMC11 (glutamine synthetase auxotroph), pBluescript II SK+
T2 sequence (P0A9C5 2-469 S53A/Y398V limits assumed): T1 sequence (P0A9C5 2-469 S53A/S54A limits assumed) with A53S, Y397V
Protocol: as §1, §2, §3, §4

Compound	% Reduction in ADP-based Specific Activity ([1]; Mg assay)	% Reduction in Glutamine-based Specific Activity ([1]; Mg assay)	% Conversion ([1]; Mg assay)	% Reduction in ADP-based Specific Activity ([1]; Mn assay)	% Reduction in Glutamine-based Specific Activity ([1]; Mn assay)	% Conversion ([1]; Mn assay)	inhibition of the enzyme (in words) [2]	% Conversion ([2]; Mn assay)	inhibition of the enzyme (in words) ([1]; S52A S53A (double serine mutant), HPLC assays)	% Conversion ([2]; Mg assay)
NCCc1ccc(S(=O)(=O)F)cc1 [AEBSF]	−41.91%	−17.82%	115%	−16.20%	−7.69%	98%	appeared to cause inhibition	85%	–	–
O=S(=O)(F)Cc1ccccc1 [PMSF]	−23.74%	−23.24%	82%	−13.56%	−16.92%	85%	found to inhibit	67%	did not significantly inhibit; also recorded: not significantly inhibited	49%
